Consider two substances from patent publication US20260242768A1, “ACETYL-COENZYME A CARBOXYLASE MUTANTS” (CIBUS US LLC, priority 2023, published 2026).

One data set has as its system O. sativa ACCase. In words: Growth of Saccharomyces cerevisiae pseudodiploid acc1Δ strains carrying wild-type or mutant OsACCase plasmids, streaked onto plates with increasing concentrations of clethodim (Examples 5, 7, 10; Tables 8, 12). It counts as cell-based, Oryza sativa. On the set-up: key to growth, 0 mM clethodim / growth, 0.025 mM clethodim / growth, 0.1 mM clethodim / growth, 0.25 mM clethodim / growth, 0.5 mM clethodim / growth, 1 mM clethodim: ++ = Strong growth; + = Poor growth; − = No growth. The following applies: Table 12, galactose 0.01%. The source says: Mutations at position N2097S and V2098A were combined to determine if point mutations at both positions gave increased resistance compared to either single point mutation. Each of these respective mutations (N2097S, V2098A and N2097S/V2098A) were generated by standard methods and introduced into a Saccharomyces cerevisiae pseudodiploid acc1Δ strain with a plasmid containing wild-type O. sativa ACCase gene. Once each of these mutations were introduced by recombination mediated mutagenesis, the OsACCase wild-type plasmid was removed, and mutation strains were confirmed by sequencing. The three strains, along with a series of controls including a WT strain (negative control), an I1781L mutant strain, and a D2078G mutant strain (positive control), were streaked onto plates with increasing concentrations of clethodim. […] These observations argue that N2097S is an enhancer of V2098A tolerance.
Edits at position S1784N and A1785G were combined to determine if point mutations at both of these two positions gave increased resistance compared to either single point mutation. Each of these respective mutations (S1784N, A1785G and S1784N/A1785G) were generated by standard methods and introduced into a Saccharomyces cerevisiae pseudodiploid acc1Δ strain with a plasmid containing wild-type O. sativa ACCase gene. Once each of these mutations were introduced by recombination mediated mutagenesis, the OsACCase wild-type plasmid was removed, and mutation strains were confirmed by sequencing. The three strains, along with a series of controls including a WT strain (negative control), an I1781L mutant strain, a D2078G mutant strain (positive control), and a V2075L mutant strain were streaked onto plates with increasing concentrations of clethodim.
Each of these respective mutations (D2078G, P2083T, D2078G/P2083T) were generated by standard methods and introduced into a Saccharomyces cerevisiae pseudodiploid acc14 strain with a plasmid containing the wild-type O. sativa ACCase gene. Once plasmids bearing each of these mutations, introduced using recombination-mediated mutagenesis, the OsACCase wild-type plasmid was removed, and strains bearing each mutant plasmid were confirmed by sequencing. The three strains, along with a series of controls including a wild-type strain (negative control), an I1781L mutant strain (medium control), and a pre-existing D2078G mutant strain (positive control) were streaked onto plates with increasing concentrations of clethodim.

A further data set has as its system rice Oryza sativa. The experiment in a line: Regenerated edited rice shoots established in soil, greenhouse: plant growth, herbicide tolerance, fertility (Example 9). It counts as in vivo. From the text: The D2078G mutation was introduced into a native rice Oryza sativa ACCase gene utilizing PEG delivery of CRISPR-Cas and GRONs into protoplasts. Examples of target spacer sequences for sgRNA targeting the rice ACCase gene are shown, but not limited to, those listed in the below Table 9. Sequence information for exemplary GRONs is shown, but not limited to those listed in the below Table 10. Rice protoplasts were isolated from cell suspension cultures initiated from Cypress mature seed-derived embryogenic calli. A non-coding D2078G GRON with RNP (CRISPR-Cas9 protein plus gRNA complex) was introduced into rice protoplasts using PEG-mediated delivery method. Following PEG treatment, protoplasts were cultured in liquid medium and kept stationary in the dark at 26±2° C. for 2 weeks. After 2 weeks, culture plates were gently scraped to release the divided protoplasts from the bottom of the plates and added equal volume of fresh liquid medium. These cultures were transferred on a rotatory shaker and incubated in the dark at 26±2° C. […]
(§1) The results of herbicide rate tolerance field trials of the D2078G/P2083T line can be seen below in Table 11. The edited plants were sprayed with clethodim, and plant injury was visually scored at (7) seven, (14) fourteen, and (28) days after application of the herbicide (“DAA”) on a 0-100% percentage scale for chlorosis of newest leaf-tips and growing points.

In another data set the test system is D2078G/P2083T line. It counts as in vivo, Oryza sativa. The conditions noted are these: sprayed with clethodim.
Source text: as §1

Data set [1] deals with D2078G/P2083T edited rice line. In kind it is in vivo, Oryza sativa. The conditions noted are these: all clethodim spray rates, nine environments. From the text: The clethodim herbicide chosen contained 2.0 pounds active ingredient per gallon. Using a randomized completed block design with three replicates, four clethodim spray rates (5.76, 8.30, 12.10 and 16.00 fluid ounces per acre) were compared to an untreated control (“UTC”). Phytotoxicity rates to access crop response were visually scored (7) seven, (14) fourteen and (28) twenty-eight days after clethodim application (“DAA”) using a 0-100% percentage chlorosis scale. All plots were maintained weed free using additional herbicides tolerant by all rice lines. Yield was collected using a research plot combine to harvest the small plot, and yields were standardized to 12.5% moisture before being converted to a percentage of the untreated control.

Data set [2] relates to rice (Oryza sativa) plastidal ACCase. In words: Clethodim tolerance of rice ACCase mutations, yeast complementation assay (Examples 1-3). It counts as cell-based. The source says:
Joachimiak M. et al Proc Natl Acad Sci U.S.A. 1997 Sep. 2; 94 (18): 9990-5 and WO/2013/074524 and WO/2013/074524 each describe methods to complement a yeast (Saccharomyces cerevisiae) strain lacking the native acc1 gene with either a wt or mutated form of a chimeric plastidal ACCase gene from a plant such as rice (Oryza sativa). Methods to introduce one or more mutations listed herein into the chimeric ACCase gene and subsequently complement the acc1 lacking yeast strain are well known by an individual skilled in the art. In the art assays are known for measuring tolerance of a mutated plant ACCase gene versus a herbicide that is a member of the aryloxyphenoxypropanoate, cyclohexanedione, and/or phenylpyrazoline families of herbicides such as clethodim, sethoxydim, fluazifop, haloxyfop, quizalofop, and pinoxaden (Joachimiak M. et al Proc Natl Acad Sci U.S.A. 1997 Sep. 2; 94 (18): 9990-5 and WO/2013/074524).
A library of random mutations in the rice (Oryza sativa) plastidal ACCase gene was generated and screened for clethodim tolerant clones using a yeast complementation assay.

For data set [3] the following is noted: Cha et al., Pesticide Biochemistry and Physiology 111 (2014) 7-13; cited from earlier work.

“D2078G/P2083T: double mutant ACCase; yeast strain and edited rice line”: the “growth, 0 mM clethodim” value in the data set with O. sativa ACCase (plate with 0 mM clethodim) is on record as “++”. Further, the “growth, 0.025 mM clethodim” value in the data set on O. sativa ACCase (plate with 0.025 mM clethodim) is listed as “++”. Moreover, the “growth, 0.1 mM clethodim” value in the data set on O. sativa ACCase (plate with 0.1 mM clethodim) is recorded as “++”. For the same substance, in the data set on O. sativa ACCase (plate with 0.25 mM clethodim), the “growth, 0.25 mM clethodim” value is “++”. Moreover, in the data set with O. sativa ACCase (plate with 0.5 mM clethodim), the “growth, 0.5 mM clethodim” value is recorded as “++”. Further, the “growth, 1 mM clethodim” value in the data set with O. sativa ACCase (plate with 1 mM clethodim) was “+”. In addition, in the data set with rice Oryza sativa, the herbicide tolerance entry was “herbicide tolerance”. Further, the meristem necrosis result in the data set on D2078G/P2083T line was “limited meristem necrosis except at the highest rates of herbicide application”. The values for the yield entry (with D2078G/P2083T line (compared to the untreated control plants); in data set [1]) were “increased yield” and “good yield”, respectively. In addition, the plant injury result in the data set with D2078G/P2083T line (visually scored 7, 14, 28 DAA) is “low plant injury”; in data set [1] it was “low plant injury”.

Consider “N2097D: mutated ACCase, numbering per SEQ ID NO: 2”, for which, in data set [2] (ACCase mutation tested with the herbicide clethodim), the clethodim tolerance entry is recorded as “neither the N2097S nor the N2097D single mutations provide detectable clethodim tolerance”. Besides, in data set [2] (combined with either D2078G, V2075L or V2098A), the “effect on clethodim tolerance when combined with D2078G, V2075L or V2098A” value is “produces opposing results”. Moreover, in data set [3], the “tolerance to the fluazifop herbicide” value was “associated with tolerance to the fluazifop herbicide”.
